Assays:
CK2 protein kinase = CK2 protein kinase (Homo sapiens, UniProt P68400); conditions: cited from earlier work
phospholipases = conditions: cited from earlier work
neutrophils [1] = conditions: cited from earlier work
neutrophils [2] = conditions: treatment of neutrophils; Thelen et al. 1994; cited from earlier work
PI3K = assay: Cellular testing of PI3K inhibitors: P-S473-PKB Luminex assay in PC3 cells; assay type: cell-based; conditions: PI3 kinase inhibition, cell
Protocol: Description of the Method for the Cellular Testing of PI3K Inhibitors
The cellular assay for determination of the P-S473-PKB level is carried out as a Luminex assay in 96-well format in PC3 cells.
PC3 cells are sown out with 20,000 cells per well in 100 μl medium (45% RPMI1460/45% Ham's F12/10% FCS) and incubated on the following day for 30 min with a serial dilution of the test substance (7 concentrations) under serum-free conditions. […] The lysates are incubated overnight at 4° C. with shaking with Luminex beads to which an anti-total PKB antibody is coupled. The detection is carried out on the following day by addition of a P-S473-PKB antibody and a species-specific PE-labelled secondary antibody. The detection of P-S473-PKB is carried out by measurement in a Luminex 100 instrument by determination of 100 events per cavity in a measurement time of 60 sec. […] The values of the preparations treated with test substance are calculated from this as percent of control, and IC50 values are determined by means of RS1.

Sequence of CK2 protein kinase (P68400 whole entry): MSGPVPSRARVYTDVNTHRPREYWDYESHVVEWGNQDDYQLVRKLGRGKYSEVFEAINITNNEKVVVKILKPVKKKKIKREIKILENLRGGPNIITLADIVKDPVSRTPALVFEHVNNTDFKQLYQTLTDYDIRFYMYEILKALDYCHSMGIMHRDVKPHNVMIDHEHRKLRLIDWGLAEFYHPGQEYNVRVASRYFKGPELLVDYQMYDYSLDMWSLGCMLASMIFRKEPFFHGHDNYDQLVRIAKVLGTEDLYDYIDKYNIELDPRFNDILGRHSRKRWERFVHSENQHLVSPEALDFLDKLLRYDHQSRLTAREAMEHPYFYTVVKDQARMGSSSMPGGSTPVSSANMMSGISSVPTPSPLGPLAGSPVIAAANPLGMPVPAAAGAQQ

Row | IC50 (PI3K) | Structure (SMILES) | also measured
1 |  | O=c1cc(N2CCOCC2)oc2c(-c3ccccc3)cccc12 [LY294002] | IC50 (CK2 protein kinase): 5000 to 10000 nM; inhibitory activity on phospholipases (phospholipases): slight inhibitory activity; neutrophil migration (neutrophils [1]): block; superoxide release (neutrophils [1]): block
2 |  | COC[C@H]1OC(=O)c2coc3c2[C@@]1(C)C1=C(C3=O)[C@@H]2CCC(=O)[C@@]2(C)C[C@H]1OC(C)=O [wortmannin] | fMLP-induced respiratory burst response (neutrophils [2]): prevents; neutrophil migration (neutrophils [1]): block; superoxide release (neutrophils [1]): block
3 | 1 to 100 nM | COc1cc(Nc2nc3ccccc3nc2NS(=O)(=O)c2cn(C)c(CN(C)C)n2)c(OCCC(C)O)c(OC)c1 (centres unmarked) [Compound A28] | 
4 | 100 to 10000 nM | COc1cc(Nc2nc3ccccc3nc2NS(=O)(=O)c2ccc(F)c(F)c2)c(OCCOCCO)c(OC)c1 [Compound A73] | 
5 | > 10000 nM | COc1cc(Nc2nc3ccccc3nc2NS(=O)(=O)c2cn(C)cn2)c2occc2c1 [Compound A16, 1-Methyl-1H-imidazole-4-sulfonic acid [3-(5-methoxybenzofuran-7-ylamino)quinoxalin-2-yl]amide] | 
6 | 100 to 10000 nM | COc1cc(Nc2nc3ccccc3nc2NS(=O)(=O)c2ccc(CN(C)C)cc2)c(OCCOCCO)c(OC)c1 [Compound A57, 4-Dimethylaminomethyl-N-(3-{2-[2-(2-hydroxy-ethoxy)ethoxy]-3,5-dimethoxyphenylamino}-quinoxalin-2-yl)benzenesulfonamide] | 
7 | 1 to 100 nM | COc1cc(Nc2nc3ccccc3nc2NS(=O)(=O)c2ccccc2)c(OCCCO)c(OC)c1 [Compound A30] | 
8 | 100 to 10000 nM | COc1cc(Nc2nc3ccccc3nc2NS(=O)(=O)c2cccnc2)c(OCCS(=O)(=O)CCO)c(OC)c1 [Compound A67] | 
9 | 100 to 10000 nM | COc1cc(Nc2nc3ccccc3nc2NS(=O)(=O)c2cn(C)cn2)c(OCCS(=O)(=O)CCO)c(OC)c1 [Compound A77] | 
10 | 1 to 100 nM | COc1cc(Nc2nc3ccccc3nc2NS(=O)(=O)c2ccc(C#N)cc2)c(OCCC(C)O)c(OC)c1 (centres unmarked) [Compound A45] | 
11 | 100 to 10000 nM | COc1cc(Nc2nc3ccccc3nc2NS(=O)(=O)c2cn(C)cn2)c(OCC(O)CO)c(OC)c1 (centres unmarked) [Compound A75] | 
12 | 100 to 10000 nM | COc1cc2c(c(Nc3nc4ccccc4nc3NS(=O)(=O)c3cn(C)cn3)c1)OC(CO)C2 (centres unmarked) [Compound A5] | 
13 | 100 to 10000 nM | COc1ccc(S(=O)(=O)Nc2nc3ccccc3nc2Nc2cc(OC)cc(OC)c2OCCOCCO)cc1 [Compound A61] | 
14 | 100 to 10000 nM | COc1cc(Nc2nc3ccccc3nc2NS(=O)(=O)c2cnn(CC(=O)N(C)C)c2)c(OCCCO)c(OC)c1 [Compound A27] | 
15 | 1 to 100 nM | COc1cc(Nc2nc3ccccc3nc2NS(=O)(=O)c2ccc(C#N)cc2)c(OCCS(=O)(=O)CCO)c(OC)c1 [Compound A76] | 

— patent publication US8895559B2, “Quinoxalines derivatives and pharmaceutical compositions and kits” (Merck Patent GmbH, priority 2010, dated 2014)
